Article PMC11350809, “Targeting N-Acetylglucosaminidase in Staphylococcus aureus with Iminosugar Inhibitors” (Antibiotics, 2024)
In brackets after ≈: the same amount, converted by molar mass. Where two headings read alike, the source gives them in different places.

How the values were obtained:
[1] = biological target: α-Glucosidase (from baker's yeast); conditions: cited from earlier work
[2] = biological target: α-Galactosidase (from green coffee beans); conditions: cited from earlier work
[3] = biological target: β-galactocerebrosidase (GALC); conditions: cited from earlier work
[4] = biological target: naringinase (Nar); conditions: cited from earlier work
[5] = biological target: β-Galactosidase (from bovine liver); conditions: cited from earlier work
[6] = biological target: β-Glucosidase (from almond); conditions: cited from earlier work
[7] = biological target: human recombinant β-glucocerebrosidase (GBA); conditions: cited from earlier work
[8] = tested on: S. aureus (ATCC 29213); test: Minimal inhibitory concentration, broth microdilution; assay type: cell-based, Staphylococcus aureus; conditions: for MIC: Staphylococcus aureus, ATCC29213, broth microdilution, 20 h at 35 °C, read-out: MIC S. aureus ATCC29213; for antibacterial activity against S. aureus ATCC 29213: in words
Procedure: (§1) The minimal inhibitory concentrations (MICs) were determined against the bacterial strains S. aureus (ATCC 29213) and E. coli (ATCC 25922), and the results are presented in Table S6.
(§2) Antimicrobial testing was carried out by the broth microdilution method in a 96-well plate format following the CLSI guidelines and European Committee for Antimicrobial Susceptibility Testing (EUCAST) recommendations. Bacterial suspension of a specific bacterial strain equivalent to 0.5 McFarland turbidity standard was diluted with cation-adjusted Mueller Hinton broth to obtain a final inoculum of 10^5 CFU/mL. Compounds dissolved in 20% DMSO and inoculum were mixed together and incubated for 20 h at 35 °C. After incubation, the minimal inhibitory concentration (MIC) values were determined by visual inspection as the lowest dilution of compounds showing no turbidity. The MICs were determined against S. aureus (ATCC 29213) and E. coli (ATCC 25922) bacterial strains. Tetracycline was used as a positive control on every assay plate, showing MICs of 0.5 µg/mL and 1 µg/mL for S. aureus and E. coli, respectively.

[9] = tested on: E. coli (ATCC 25922); test: Minimal inhibitory concentration, broth microdilution (negative control strain); assay type: cell-based; conditions: Escherichia coli, ATCC25922; broth microdilution, 20 h at 35 °C; read-out: MIC E. coli ATCC25922
Procedure: as §1, §2

[10] = pH 7.2, p-nitrophenyl-α-D-glucopyranoside, footnote *
[11] = pH 6.8, p-nitrophenyl-α-D-galactopyranoside, footnote *
[12] = pH 5.0, p-nitrophenyl-β-D-glucopyranoside, footnote *
[13] = pH 5.2, footnote *, read-out: IC50 GBA pH 5.2
[14] = pH 7.0, footnote *, read-out: IC50 GBA pH 7.0
[15] = pH 7.2, p-nitrophenyl-α-D-glucopyranoside, footnote ***
[16] = pH 6.8, p-nitrophenyl-α-D-galactopyranoside, footnote ***
[17] = pH 5.0, p-nitrophenyl-β-D-glucopyranoside, footnote ***
[18] = pH 7.2, p-nitrophenyl-a-d-glucopyranoside, footnote **
[19] = pH 6.8, p-nitrophenyl-a-d-galactopyranoside, footnote **
[20] = pH 5.0, p-nitrophenyl-b-d-glucopyranoside, footnote **
[21] = pH 5.2, footnote **, read-out: IC50 GBA pH 5.2
[22] = pH 7.0, footnote **, read-out: IC50 GBA pH 7.0

SMILES	IC50 [1, 10] [µM]	IC50 [2, 11] [µM]	IC50 ([3]; footnote *) [µM]	IC50 ([4]; footnote *) [µM]	IC50 ([5]; footnote *) [µM]	IC50 [6, 12] [µM]	IC50 [7, 13] [µM]	IC50 [7, 14] [µM]	MIC [8] [µM]	MIC [9] [µM]	IC50 [1, 18] [µM]	IC50 [2, 19] [µM]	antibacterial activity against S. aureus ATCC 29213 [8]	IC50 ([3]; footnote **) [µM]	IC50 ([4]; footnote **) [µM]	IC50 ([5]; footnote **) [µM]	IC50 [6, 20] [µM]	further results
CCCCCCCCN=C1OCC2C(O)C(O)C(O)CN12 (stereo not shown) [Compound 12]	> 100	> 100	> 10	0.1 ± 0.01	0.4 ± 0.01	5.7 ± 0.4	0.1 ± 0.01	0.02 ± 0.001										
CCCCOC1OCC(CNC(=N)N2CC(O)C(O)C(O)C2)O1 (stereo not shown) [Compound 11]									> 500	> 500								IC50 [1, 15]: > 30 µM; IC50 [2, 16]: > 30 µM; IC50 ([3]; footnote ***): > 30 µM; IC50 ([4]; footnote ***): > 30 µM; IC50 ([5]; footnote ***): > 30 µM; IC50 [6, 17]: 19.2 ± 0.5 µM; IC50 ([7]; pH 5.2, footnote ***, read-out: IC50 GBA pH 5.2): > 30 µM; IC50 ([7]; pH 7.0, footnote ***, read-out: IC50 GBA pH 7.0): 2.56 ± 0.233 µM
CCCCCCCCCCCCN=C1OCC2C(O)C(O)C(O)CN12 (stereo not shown) [Compound 14]	> 100	> 100	> 10	0.1 ± 0.01	< 0.1	1.6 ± 0.1	0.01 ± 0.001	0.001 ± 0.001										
CCCCCCCCNC(=O)N1CC(O)C(O)C(O)C1 (stereo not shown) [Compound 7]									125 (≈ 36 µg/mL)	> 500	> 100	> 100	modest antibacterial activities	> 10	> 100	19.6 ± 1.5	> 100	IC50 [7, 21]: > 10 µM; IC50 [7, 22]: > 10 µM
CCCCCCCCCN1C[C@H](O)[C@@H](O)[C@H](O)[C@H]1CO [NN-DNJ, reference compound]	> 100	> 100	> 10	0.1 ± 0.01	> 100	> 100					> 100	> 100		> 10	0.2 ± 0.01	> 100	> 100	IC50 [1, 15]: > 30 µM; IC50 [2, 16]: > 30 µM; IC50 ([3]; footnote ***): > 30 µM; IC50 ([4]; footnote ***): 0.1 ± 0.01 µM; IC50 ([5]; footnote ***): > 30 µM; IC50 [6, 17]: > 30 µM
CCCCCCCCCCN(CCCCCCCCCC)C(=O)CNC(=N)N1CC(O)C(O)C(O)C1 (stereo not shown) [Compound 6]									≤ 4	500 (≈ 256 µg/mL)	> 100	> 100	modest antibacterial activities	> 10	3.9 ± 0.6	11.6 ± 4	> 100	IC50 [7, 21]: 0.04 ± 0.01 µM; IC50 [7, 22]: 0.02 ± 0.001 µM
CCCCCCCCCCN=C1OCC2C(O)C(O)C(O)CN12 (stereo not shown) [Compound 13]	> 100	> 100	> 10	0.01 ± 0.01	0.1 ± 0.01	2.1 ± 0.1	0.02 ± 0.001	0.001 ± 0.001										
CCCCCCCCCCN(CCCCCCCCCC)C(=O)CN=C1OCC2C(O)C(O)C(O)CN12 (stereo not shown) [Compound 2]	> 100	> 100	> 10	0.5 ± 0.01	0.9 ± 0.1	> 100	0.01 ± 0.001	0.002 ± 0.001	125 (≈ 65.7 µg/mL)	> 500			modest antibacterial activities					
